Measured values taken from paper PMC9090415, “Discovery of small molecule inhibitors of Plasmodium falciparum apicoplast DNA polymerase” (Journal of Enzyme Inhibition and Medicinal Chemistry, 2022).

Biological target: P. falciparum apicoplast DNA polymerase (Pf-apPOL) (Plasmodium falciparum, UniProt Q8ILY1)
Assay: Fluorescence-based high-throughput DNA polymerase assay (molecular beacon), primary screen and dose-response
Assay type: biochemical
Conditions: for DNA Pol: 90 min, 10 µM; for % inhibition apPOL 180' 2.5 / % inhibition apPOL 180' 5 / % inhibition apPOL 180' 10 / % inhibition apPOL 180' 20 / % inhibition apPOL 180' 40 / % inhibition apPOL 180' 80: read at 180'
Outline: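 Single-point screening used 10 µM compound with 20 nM polymerase, 20 nM hairpin substrate and 6 µM dNTPs for 90 min at 25 °C. Confirmatory titrations (2.5–80 µM) followed fluorescence at three times, and IC50 was derived from a fit including a cooperativity term n.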

Chain of P. falciparum apicoplast DNA polymerase (Pf-apPOL) (Q8ILY1 entry or part of it): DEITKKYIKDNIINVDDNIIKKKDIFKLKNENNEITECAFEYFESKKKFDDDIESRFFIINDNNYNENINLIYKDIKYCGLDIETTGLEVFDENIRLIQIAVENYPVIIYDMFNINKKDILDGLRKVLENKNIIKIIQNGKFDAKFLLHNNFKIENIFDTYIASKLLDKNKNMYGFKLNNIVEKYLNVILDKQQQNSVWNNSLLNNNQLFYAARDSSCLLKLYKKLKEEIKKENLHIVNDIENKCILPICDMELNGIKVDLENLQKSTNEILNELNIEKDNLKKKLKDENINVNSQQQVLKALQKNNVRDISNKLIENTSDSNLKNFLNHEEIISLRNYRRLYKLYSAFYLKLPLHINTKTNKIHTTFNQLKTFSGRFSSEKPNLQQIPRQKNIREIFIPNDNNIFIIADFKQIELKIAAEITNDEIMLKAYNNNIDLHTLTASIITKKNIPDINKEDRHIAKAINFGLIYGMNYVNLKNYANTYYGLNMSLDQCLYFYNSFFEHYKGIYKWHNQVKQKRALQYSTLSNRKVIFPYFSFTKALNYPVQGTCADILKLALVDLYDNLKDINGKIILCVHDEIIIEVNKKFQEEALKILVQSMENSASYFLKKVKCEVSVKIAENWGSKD

Q: For `Cc1nc(/N=N/c2ccc(C(=O)[O-])cc2)c(COP(=O)([O-])[O-])c(C=O)c1O.[Na+].[Na+].[Na+]` [KU0261395], which “DNA Pol” value ('DNA Pol' of the 186 hits list (primary screen value)) is on record?
A: 94

Q: What about the “DNA Pol” value (DNA Pol (primary screen value)) of the same molecule?
A: 94

Q: And the “% inhibition Apo pol 10'” value (DRC-1, concentration 2.5)?
A: 68.7077%

Q: What about the “% inhibition Apo pol 10'” value (DRC-1, concentration 5) of the same molecule?
A: 75.1682%

Q: What about the “% inhibition Apo pol 10'” value (DRC-1, concentration 10) of the same molecule?
A: 82.6072%

Q: What about the “% inhibition Apo pol 10'” value (DRC-1, concentration 20) of the same molecule?
A: 83.4638%

Q: And the “% inhibition Apo pol 10'” value (DRC-1, concentration 40)?
A: 87.7541%

Q: And the “% inhibition Apo pol 10'” value (DRC-1, concentration 80)?
A: 88.013%

Q: And the “% inhibition Apol 90'” value (DRC-1, concentration 2.5)?
A: 38.1069%

Q: What about the “% inhibition Apol 90'” value (DRC-1, concentration 5) of the same molecule?
A: 43.9893%

Q: And the “% inhibition Apol 90'” value (DRC-1, concentration 10)?
A: 54.4878%

Q: What about the “% inhibition Apol 90'” value (DRC-1, concentration 20) of the same molecule?
A: 58.7781%

Q: What about the “% inhibition Apol 90'” value (DRC-1, concentration 40) of the same molecule?
A: 68.7531%

Q: What about the “% inhibition Apol 90'” value (DRC-1, concentration 80) of the same molecule?
A: 75.4152%

Q: What about the “% inhibition apPOL 180'” value (DRC-1, concentration 2.5) of the same molecule?
A: 26.3863%

Q: And the “% inhibition apPOL 180'” value (DRC-1, concentration 5)?
A: 31.3621%

Q: And the “% inhibition apPOL 180'” value (DRC-1, concentration 10)?
A: 42.4654%

Q: What about the “% inhibition apPOL 180'” value (DRC-1, concentration 20) of the same molecule?
A: 47.0791%

Q: And the “% inhibition apPOL 180'” value (DRC-1, concentration 40)?
A: 59.2191%

Q: What about the “% inhibition apPOL 180'” value (DRC-1, concentration 80) of the same molecule?
A: 68.3493%

Q: What about the “% inhibition Apo pol 5'” value (DRC-2, concentration 2.5) of the same molecule?
A: 42%

Q: And the “% inhibition Apo pol 5'” value (DRC-2, concentration 5)?
A: 44%

Q: And the “% inhibition Apo pol 5'” value (DRC-2, concentration 10)?
A: 53%

Q: And the “% inhibition Apo pol 5'” value (DRC-2, concentration 20)?
A: 53%

Q: What about the “% inhibition Apo pol 5'” value (DRC-2, concentration 40) of the same molecule?
A: 54%

Q: And the “% inhibition Apo pol 5'” value (DRC-2, concentration 80)?
A: 55%

Q: And the “% inhibition Apol 40'” value (DRC-2, concentration 2.5)?
A: 33%

Q: What about the “% inhibition Apol 40'” value (DRC-2, concentration 5) of the same molecule?
A: 40%

Q: What about the “% inhibition Apol 40'” value (DRC-2, concentration 10) of the same molecule?
A: 51%

Q: What about the “% inhibition Apol 40'” value (DRC-2, concentration 20) of the same molecule?
A: 56%

Q: What about the “% inhibition Apol 40'” value (DRC-2, concentration 40) of the same molecule?
A: 61%

Q: And the “% inhibition Apol 40'” value (DRC-2, concentration 80)?
A: 66%

Q: And the “% inhibition ApPOL 90'” value (DRC-2, concentration 2.5)?
A: 29%

Q: And the “% inhibition ApPOL 90'” value (DRC-2, concentration 5)?
A: 36%

Q: And the “% inhibition ApPOL 90'” value (DRC-2, concentration 10)?
A: 48%

Q: And the “% inhibition ApPOL 90'” value (DRC-2, concentration 20)?
A: 53%

Q: What about the “% inhibition ApPOL 90'” value (DRC-2, concentration 40) of the same molecule?
A: 60%

Q: What about the “% inhibition ApPOL 90'” value (DRC-2, concentration 80) of the same molecule?
A: 66%

Q: And the “% inhibition apPOL 180'” value (DRC-2, concentration 2.5)?
A: 20%

Q: And the “% inhibition apPOL 180'” value (DRC-2, concentration 5)?
A: 26%

Q: And the “% inhibition apPOL 180'” value (DRC-2, concentration 10)?
A: 39%

Q: What about the “% inhibition apPOL 180'” value (DRC-2, concentration 20) of the same molecule?
A: 48%

Q: And the “% inhibition apPOL 180'” value (DRC-2, concentration 40)?
A: 56%

Q: And the “% inhibition apPOL 180'” value (DRC-2, concentration 80)?
A: 66%

Q: How did the “DNA Pol” value (186 hits, DNA Pol (screen value), unit not given) turn out when `Cc1cccc(-c2noc(C(=O)NNC(=O)C(Cl)(Cl)Cl)n2)c1` [KU0266208] was run?
A: 74

Q: What about the “DNA Pol” value ('DNA Pol' (screen value), unit not given) of the same molecule?
A: 74

Q: And the “% inhibition Apo pol 10' 2.5” value (DRC-1, read at 10', concentration 2.5)?
A: 9.201%

Q: And the “% inhibition Apo pol 10' 5” value (DRC-1, read at 10', concentration 5)?
A: 9.396%

Q: What about the “% inhibition Apo pol 10' 10” value (DRC-1, read at 10', concentration 10) of the same molecule?
A: 14.6387%

Q: And the “% inhibition Apo pol 10' 20” value (DRC-1, read at 10', concentration 20)?
A: 23.1394%

Q: What about the “% inhibition Apo pol 10' 40” value (DRC-1, read at 10', concentration 40) of the same molecule?
A: 47.3506%

Q: What about the “% inhibition Apo pol 10' 80” value (DRC-1, read at 10', concentration 80) of the same molecule?
A: 74.0124%

Q: And the “% inhibition Apol 90' 2.5” value (DRC-1, read at 90', concentration 2.5)?
A: -1.588%

Q: And the “% inhibition Apol 90' 5” value (DRC-1, read at 90', concentration 5)?
A: -0.4833%

Q: And the “% inhibition Apol 90' 10” value (DRC-1, read at 90', concentration 10)?
A: 4.634%

Q: What about the “% inhibition Apol 90' 20” value (DRC-1, read at 90', concentration 20) of the same molecule?
A: 14.9894%

Q: What about the “% inhibition Apol 90' 40” value (DRC-1, read at 90', concentration 40) of the same molecule?
A: 39.8547%

Q: And the “% inhibition Apol 90' 80” value (DRC-1, read at 90', concentration 80)?
A: 66.9528%

Q: What about the “% inhibition apPOL 180' 2.5” value (DRC-1, concentration 2.5) of the same molecule?
A: -5.775%

Q: And the “% inhibition apPOL 180' 5” value (DRC-1, concentration 5)?
A: -5.2438%

Q: And the “% inhibition apPOL 180' 10” value (DRC-1, concentration 10)?
A: -0.4994%

Q: What about the “% inhibition apPOL 180' 20” value (DRC-1, concentration 20) of the same molecule?
A: 8.812%

Q: And the “% inhibition apPOL 180' 40” value (DRC-1, concentration 40)?
A: 34.7216%

Q: And the “% inhibition apPOL 180' 80” value (DRC-1, concentration 80)?
A: 64.1117%

Q: What about the “% inhibition Apo pol 5'” value (DRC-2, concentration 10) of the same molecule?
A: 11%

Q: What about the “% inhibition Apol 40'” value (DRC-2, concentration 10) of the same molecule?
A: 11%

Q: What about the “% inhibition Apol 40'” value (DRC-2, concentration 20) of the same molecule?
A: 24%

Q: What about the “% inhibition ApPOL 90'” value (DRC-2, concentration 20) of the same molecule?
A: 24%

Q: What about the “% inhibition Apo pol 5' 2.5” value (DRC-2, read at 5', concentration 2.5) of the same molecule?
A: 4.48%

Q: What about the “% inhibition Apo pol 5' 5” value (DRC-2, read at 5', concentration 5) of the same molecule?
A: 5.63%

Q: What about the “% inhibition Apo pol 5' 10” value (DRC-2, read at 5', concentration 10) of the same molecule?
A: 11%

Q: What about the “% inhibition Apo pol 5' 20” value (DRC-2, read at 5', concentration 20) of the same molecule?
A: 21%

Q: And the “% inhibition Apo pol 5' 40” value (DRC-2, read at 5', concentration 40)?
A: 36%

Q: And the “% inhibition Apo pol 5' 80” value (DRC-2, read at 5', concentration 80)?
A: 49%

Q: What about the “% inhibition Apol 40' 2.5” value (DRC-2, read at 40', concentration 2.5) of the same molecule?
A: 4.33%

Q: And the “% inhibition Apol 40' 5” value (DRC-2, read at 40', concentration 5)?
A: 4.64%

Q: And the “% inhibition Apol 40' 10” value (DRC-2, read at 40', concentration 10)?
A: 11%

Q: And the “% inhibition Apol 40' 20” value (DRC-2, read at 40', concentration 20)?
A: 24%

Q: What about the “% inhibition Apol 40' 40” value (DRC-2, read at 40', concentration 40) of the same molecule?
A: 44%

Q: What about the “% inhibition Apol 40' 80” value (DRC-2, read at 40', concentration 80) of the same molecule?
A: 58%

Q: What about the “% inhibition ApPOL 90' 2.5” value (DRC-2, read at 90', concentration 2.5) of the same molecule?
A: 3%

Q: And the “% inhibition ApPOL 90' 5” value (DRC-2, read at 90', concentration 5)?
A: 2.46%

Q: And the “% inhibition ApPOL 90' 10” value (DRC-2, read at 90', concentration 10)?
A: 10%

Q: What about the “% inhibition ApPOL 90' 20” value (DRC-2, read at 90', concentration 20) of the same molecule?
A: 24%

Q: What about the “% inhibition ApPOL 90' 40” value (DRC-2, read at 90', concentration 40) of the same molecule?
A: 45%

Q: What about the “% inhibition ApPOL 90' 80” value (DRC-2, read at 90', concentration 80) of the same molecule?
A: 60%

Q: What about the “% inhibition apPOL 180' 2.5” value (DRC-2, concentration 2.5) of the same molecule?
A: -1%

Q: What about the “% inhibition apPOL 180' 5” value (DRC-2, concentration 5) of the same molecule?
A: 1.1%

Q: And the “% inhibition apPOL 180' 10” value (DRC-2, concentration 10)?
A: 5.71%

Q: And the “% inhibition apPOL 180' 20” value (DRC-2, concentration 20)?
A: 20%

Q: And the “% inhibition apPOL 180' 40” value (DRC-2, concentration 40)?
A: 42%

Q: What about the “% inhibition apPOL 180' 80” value (DRC-2, concentration 80) of the same molecule?
A: 59%
